Test results reported in US7588931B2, “High arachidonic acid producing strains of Yarrowia lipolytica” (E. I. du Pont de Nemours and Company, priority 2004, dated 2009).
“Also recorded” adds a separate entry of the source.

How the values were obtained:
Assay type in all cases: cell-based, Yarrowia lipolytica
[1] = system: wild type Y. lipolytica strains ATCC #20362 and ATCC #90812; test: Sulfonylurea sensitivity screening of wild type strains; conditions: wild type strains ATCC #20362 and ATCC #90812
Text: When the amino acid sequences of wild type AHAS Y. lipolytica (GenBank Accession No. XP—501277) and S. cerevisiae (GenBank Accession No. P07342) enzymes were aligned, the Trp amino acid residue at position 586 of the S. cerevisiae enzyme was equivalent to the Trp residue at position 497 of the Y. lipolytica enzyme. It was therefore hypothesized that W497L mutation in the Y. lipolytica enzyme would likely confer sulfonylurea herbicide resistance, if the wild type cells were themselves sensitive to sulfonylurea. Using methodology well known to those of skill in the art, it was determined that sulfonylurea (chlorimuron ethyl) at a concentration of 100 μg/mL in minimal medium was sufficient to inhibit growth of wild type Y. lipolytica strains ATCC #20362 and ATCC #90812.

[2] = system: β-glucuronidase (GUS) reporter; test: Relative promoter activity rank from comparative GUS reporter studies (histochemical, fluorometric and/or Real Time PCR); conditions: relative to other promoters
Method: The activity of GPM is about the same as TEF, while the activity of GPD, FBA, FBAIN, FBAINm, GPDIN, GPAT, YAT1 and EXP1 are all greater than TEF (activity is quantified in a relative manner in the column titled “Activity Rank”, wherein a ‘1’ corresponds to the promoter with lowest activity, while a ‘7’ corresponds to the promoter with highest activity). […] GUS activity in each expressed construct was measured by histochemical and/or fluorometric assays (Jefferson, R. A. Plant Mol. Biol. Reporter 5:387-405 (1987)) and/or by use of Real Time PCR.

[3] = system: β-glucuronidase (GUS) reporter; test: Comparative analysis of promoters by histochemical analysis of GUS expression
Method: Comparative studies investigating the promoter activities of the TEF, GPD, GPDIN, GPM, GPAT, FBA, FBAIN and YAT1 promoters were performed, by synthesizing constructs comprising each promoter and the E. coli gene encoding β-glucuronidase (GUS) as a reporter gene (Jefferson, R. A. Nature. 14(342):837-838 (1989)). Then, GUS activity was measured by histochemical and fluorometric assays (Jefferson, R. A. Plant Mol. Biol. Reporter 5:387-405 (1987)) and/or by using Real Time PCR for mRNA quantitation.
Yarrowia lipolytica ATCC #76982 strains containing plasmids pY5-30, pYZGDG, pYZGMG, pDMW212 and pDMW214 were grown from single colonies in 3 mL MM at 30° C. to an OD600˜1.0. Then, 100 μl of cells were collected by centrifugation, resuspended in 100 μl of histochemical staining buffer, and incubated at 30° C. Staining buffer was prepared by dissolving 5 mg of 5-bromo-4-chloro-3-indolyl glucuronide (X-Gluc) in 50 μl dimethyl formamide, followed by the addition of 5 mL 50 mM NaPO4, pH 7.0.
In a separate experiment, Y. lipolytica Y2034 strains containing plasmids pY5-30, pYGPAT-GUS, pYAT-GUS and pDMW214 were grown from single colonies in 5 mL SD media at 30° C. for 24 hrs to an OD600˜8.0. Then, 1 mL of cells were collected by centrifugation. The remaining cultures were centrifuged and washed 2× with HGM, resuspended in 5 mL each of HGM and allowed to grow at 30° C. further. […]

[4] = system: β-glucuronidase (GUS) reporter; test: Comparative analysis of promoters by fluorometric assay of GUS expression
Method: GUS activity was also assayed by fluorometric determination of the production of 4-methylumbelliferone (4-MU) from the corresponding substrate β-glucuronide (Jefferson, R. A. Plant Mol. Biol. Reporter 5:387-405 (1987)).
Yarrowia lipolytica ATCC #76982 strains containing plasmids pY5-30, PYZGDG, PYZGMG, pDMW212 and pDMW214 were grown from single colonies in 3 mL MM (as described above) at 30° C. to an OD600˜1.0. Then, the 3 mL cultures were each added to a 500 mL flask containing 50 mL MM and grown in a shaking incubator at 30° C. for about 24 hrs. The cells were collected by centrifugation, resuspended in Promega Cell Lysis Buffer and lysed using the BIO 101 Biopulverizer system (Vista, Calif.). After centrifugation, the supernatants were removed and kept on ice.
Similarly, Y. lipolytica strain Y2034 containing plasmids pY5-30, pYAT-GUS, pYGPAT-GUS and pDMW214 constructs, respectively, were grown from single colonies in 10 mL SD medium at 30° C. for 48 hrs to an OD600˜5.0. Two mL of each culture was collected for GUS activity assays, as described below, while 5 mL of each culture was switched into HGM.
Specifically, cells from the 5 mL aliquot were collected by centrifugation, washed once with 5 mL of HGM and resuspended in HGM. The cultures in HGM were then grown in a shaking incubator at 30° C. for 24 hrs. Two mL of each HGM culture were collected for the GUS activity assay, while the remaining culture was allowed to grow for an additional 96 hrs before collecting an additional 2 mL of each culture for the assay.
Each 2 mL culture sample in SD medium was resuspended in 1 mL of 0.5× cell culture lysis reagent (Promega). Resuspended cells were mixed with 0.6 mL of glass beads (0.5 mm diameter) in a 2.0 mL screw cap tube with a rubber O-ring. The cells were then homogenized in a Biospec mini beadbeater (Bartlesville, Okla.) at the highest setting for 90 sec. The homogenization mixtures were centrifuged for 2 min at 14,000 rpm in an Eppendof centrifuge to remove cell debris and beads. The supernatant was used for GUS assay and protein determination.
For each fluorometric assay, 100 μl of extract was added to […] of GUS assay buffer (2 mM 4-methylumbelliferyl-β-D-glucuronide (“MUG”) in extraction buffer) or 200 μl of extract was added to 800 μl of GUS assay buffer. The mixtures were placed at 37° C. Aliquots of 100 μl were taken at 0, 30 and 60 min time points and added to 900 μl of stop buffer (1 M Na2CO3). Each time point was read using a CytoFluor Series 4000 Fluorescence Multi-Well Plate Reader (PerSeptive Biosystems, Framingham, Mass.) set to an excitation wavelength of 360 nm and an emission wavelength of 455 nm. Total protein concentration of each sample was determined using 10 μl of extract and 200 μl of BioRad Bradford reagent or 20 μl of extract and 980 μl of BioRad Bradford reagent (Bradford, M. M. Anal. Biochem. 72:248-254 (1976)). GUS activity was expressed as nmoles of 4-MU per minute per mg of protein.

| Molecule | concentration in minimal medium sufficient to inhibit growth [1] [µg/mL] | Activity “Rank” [2] | promoter activity by histochemical staining ([3]; strain Y2034, 24 hr in SD medium, FIG. 5C) | promoter activity by histochemical staining ([3]; strain Y2034, grown in HGM for 24 hrs) | promoter activity relative to activity in SD medium ([4]; after 120 hrs in HGM) [×] | GUS activity ([4]; strain Y2034, 24 hr, HGM) | GUS activity ([4]; strain Y2034, 48 hr, SD) | GUS activity ([4]; strain Y2034, 120 hr HGM) | increase of promoter activity ([4]; switched from SD medium into HGM and grown for 24 hrs) [fold] |
| --- | --- | --- | --- | --- | --- | --- | --- | --- | --- |
| CCOC(=O)c1ccccc1S(=O)(=O)NC(=O)Nc1nc(Cl)cc(OC)n1 [chlorimuron ethyl] | 100 | – | – | – | – | – | – | – | – |
| YAT1: Y. lipolytica ammonium transporter promoter, SEQ ID NO:165 | – | 6 | active; also recorded: stronger than the TEF promoter but significantly weaker than the FBAIN promoter and GPAT promoter | stronger than the GPAT promoter and comparable with the FBAIN promoter | 25 | 19.154 nmoles of 4-MU per minute per mg of protein | 0.536 nmoles of 4-MU per minute per mg of protein | 13.400 nmoles of 4-MU per minute per mg of protein | ~37 |
